Reference: article PMC10572602, “Molecular Mechanism of STIL Coiled-Coil Domain Oligomerization” (International Journal of Molecular Sciences, 2023)
Like-named read-outs stand apart in the source and are kept apart here.

Format: physicochemical
Details: for Tm: CD 222 nm, Boltzmann fit
Source text: Next, we used circular dichroism (CD) spectroscopy to probe the secondary structures of these WT CCD peptide assemblies. […] The spectra all had minima at 208 and 222 nm indicative of largely α-helical structures. From the high-concentration spectra we estimated ≈47% helix. To compare how the stabilities of these helical assemblies changed with concentration, we followed the changes in MRE222 with temperature over the same concentration range (Figure 2D, Table S1). Sigmoidal curves indicative of cooperative unfolding were apparent at all concentrations, indicating a cooperatively folded, oligomeric species. […] The temperature-dependent CD measurements were performed to determine the oligomerization-dependent thermal stability of the CCD. […] CD spectra of the peptides were recorded using a J-810 spectropolarimeter (Jasco) in a 0.1 cm and 1 cm quartz cuvette for far-UV CD spectroscopy, in a spectral range of 190 nm to 260 nm. The buffer used in the CD measurements was 25 mM sodium phosphate buffer pH = 6.8 with ionic strength of 154 mM (adjected by NaCl). The thermal melting of all STIL CCD peptides were measured as described. The graphs were fitted to Boltzmann equation in order to generate the Tm. Normalization to mean residue ellipticity was performed. The 100% helicity was calculated (with normalization to the length of the peptide and the condition of the measurement) as MRE × 10^−3 of −38 (Deg × cm^2 × dmol^−1 × res^−1).

Tm (5 µM, sodium phosphate pH 6.8): 18±1 °C | Tm (25 µM, sodium phosphate pH 6.8): 17±2 °C | Tm (50 µM, 25 mM sodium phosphate pH 6.8, 154 mM NaCl): 10 ± 2 °C | Tm (100 µM, sodium phosphate pH 6.8): 12±1 °C
Substance: L SPDAYRF LTEQDRQ LRLEQAQ IQRLLEA QSL-NH2 [STIL CCD718–749 L736E, STIL CCD peptide with destabilising L736E mutation; PDB 8oyk]
concentration dependence of Tm / thermal stability (in words) (pH 6.8): No detectable change in the Tm at different L736E concentrations
